Reference: ChEMBL document CHEMBL3507680, “University of Dundee, Gates Library screen for HepG2 cell viability”

Assay: Human HepG2 cell viability assay in 384 well format
Type: toxicity, cell-based
Design: dose 125 nL, time 70.5 hour; concentration not given beside the values
Conditions: HepG2 cells, read-out: Inhibition

Compound | cytotoxicity at 70.5 h [%]
O=C(O)[C@]12CN(CC3CCC3)C[C@H]1CN(c1cnccn1)C2 | -4.33
Cc1cc2occ(CC(=O)N3CCC(O)(CN(C)C)C3)c2cc1Cl (stereo not drawn) | -5.39
C[C@@H]1CN(CCC(=O)NCc2ccccc2Cl)C[C@@]1(O)C1CC1 | -2.59
COc1ccc(Cn2cc(C(=O)N(C)CCN(C)C)nn2)cc1 | -15
Cc1c(Cl)cc(C(=O)NCCc2ncnn2C)cc1Cl | -9.97
Cc1cc(C)c(C(=O)N2CCC3(CCCN(CC(C)(C)C)C3)C2)[nH]1 (stereo not drawn) | 15.2
CN(C)C(=O)CN1C[C@@H]2CC[C@H](C1)N(C/C=C/c1ccc(F)cc1)C2 | -0.0436
Cc1ccc(-c2cccc(N3CCC(NC4CCOCC4)CC3)c2)cc1 | -2.04
N[C@H]1CCCN(S(=O)(=O)c2ccc(C(=O)NCC(F)F)cc2)C1 | 25.2
Cc1c[nH]c(C(=O)N2CCn3nc(C(=O)NC4CC4)cc3C2)n1 | 24.5
CSc1nccc(NCc2cc3n(n2)CCCN(C(=O)C2CCC2)C3)n1 | 22.4
O=C(CN1CCOC1=O)N1CCc2nnc(-c3ccccc3)n2CC1 | 11.7
CC(C)C1CN(C(=O)c2ccc(Cl)cn2)CCCN1CC1CC1 (stereo not drawn) | -6.77
CNS(=O)(=O)CCNc1cc(C)nc2cc(C)nn12 | -2.52
COCCCN1C(=O)CC[C@H]2CN(c3nc4ccccc4s3)CC[C@H]21 | -3.23
Cc1ccc(N2CCN(C(=O)CCc3n[nH]c(C)n3)CC2=O)cc1 | -8.56
CN(Cc1cc(C2CC2)[nH]n1)C(=O)C(c1cccnc1)N1CCCC1 (stereo not drawn) | -3.32
COc1ncc(CN2CCC3(CCCN(CC4CCC4)C3)C2)cn1 (stereo not drawn) | -1.38
CN(C)CCN(CC1CCCO1)S(=O)(=O)NCc1ccccc1 (stereo not drawn) | -6.41
Cn1ccnc1-c1ccc(NC[C@H]2CCc3ccccc3O2)nn1 | 18
Cc1nc2c(c(NCC(O)C(F)(F)F)n1)CCNCC2 (stereo not drawn) | 11.7
CC(C)OC(=O)N1CCC(c2nnc(Cn3ccnc3)n2C)CC1 | 20.7
CCN1CC(CN(C)Cc2nc(-c3ccc(F)cc3F)oc2C)CC1=O (stereo not drawn) | 2.47

Compound | cytotoxicity at 70.5 h [%]
OC1(CN2CCCC2)COCCN(c2noc(-c3ccccc3)n2)C1 (stereo not drawn) | -11
COC(=O)CC1C(=O)NCCN1c1nc2c(s1)c(C)nn2C (stereo not drawn) | 5.02
Cc1cc(N2CCC(n3cc(CN4CCNCC4)nn3)CC2)ccn1 | 24.4
COCCc1ncc(CN2CCCC(C(=O)c3ccccc3)C2)cn1 (stereo not drawn) | -26
CCOCc1nc2c(c(NC(CC)c3ccnn3C)n1)CCNCC2 (stereo not drawn) | 0.295
Cc1ccc(CCNC(=O)CC2COCCN2S(=O)(=O)N(C)C)o1 (stereo not drawn) | 13.5
CN1CCN(S(=O)(=O)NCC2COc3ccccc3C2)CC1 (stereo not drawn) | -3.52
COc1ccc(CCN2CC(NCc3ncc[nH]3)CC2=O)cc1 (stereo not drawn) | -7.01
O[C@@]1(CN2CCN(Cc3ccncc3)CC2)CCCN2CCCC[C@@H]21 | -9.72
COc1cccc2c(=O)n(C3CCCNC3)cnc12 (stereo not drawn) | -11.4
Cc1nc(C2CCN(C(=O)c3ccc(Cl)s3)CC2)cc(=O)[nH]1 | -6.29
COc1ccc(C[C@@H]2CC[C@H](CN(C)C3CCN(C)CC3)O2)cc1 | -5.62
COc1cccc(OCCc2nc3c(cc2C(N)=O)CCC3)c1 | 1.85
CSc1ccccc1CC1CCCS(=O)(=O)C1 (stereo not drawn) | 3.79
Cc1nonc1C1CCCN1C(=O)c1cn2ccsc2n1 (stereo not drawn) | -13.5
c1cn(CCn2cnnc2)c(-c2cc3n(n2)CCCNC3)n1 | -5.64
CC(=O)c1cc(CN2C[C@@H](CN3CCCC3)[C@@H](CO)C2)n(C)c1 | -5.11
COCCc1nc(CN2CC(C)(c3ccccc3)CCC2=O)no1 (stereo not drawn) | -2.58
COc1ccc(-n2c(CO)nc3ccccc32)cc1CO | -6.11
COc1cc(F)ccc1-c1cc(N)ccn1 | -0.436
CNc1cc(-c2ccc(COCCN)cc2)c2cc[nH]c2n1 | -13.6
C[C@@H]1CN(Cc2nc(C(N)=O)no2)CC[C@@]1(O)C1CC1 | -14.8
CCc1cc(NCCN2CCNC2=O)n2nccc2n1 | 3.72

Compound | cytotoxicity at 70.5 h [%]
OCCC1CN(c2ncnc3[nH]cnc23)CCN1Cc1ccccc1F (stereo not drawn) | 5.32
COc1ccc(C(=O)N2C[C@@H](NC(=O)N(C)C)[C@H](C(C)C)C2)c(OC)n1 | -11.2
CN(CCC(C)(C)O)C(=O)C1CCC(=O)N(Cc2ccc(Cl)cc2)C1 (stereo not drawn) | -5.36
CCCOCC1CCN(C(=O)c2cnc(-c3cccnc3)nc2O)C1 (stereo not drawn) | -6.25
CCc1nc(C)c([C@H]2CN(C)C[C@@H]2C(=O)Nc2ccc3[nH]ncc3c2)[nH]1 | -5.87
COCCN1CCC(CN(C)c2nc3c(s2)c(C)nn3C)C1 (stereo not drawn) | -3.25
CC(=O)C1(c2ccccc2)CCN(C(=O)c2ccn3nnnc3c2)CC1 | -13.3
CC(Cc1cn(CCc2n[nH]c(=O)[nH]2)nn1)c1ccccc1 (stereo not drawn) | -7.35
CO[C@H]1CN(C(C)C)C[C@@H]1NC(=O)Nc1cccc(SC)c1 | 49.1
N#Cc1cccc(N2CCC3(CCC(=O)N(CC4CCCO4)C3)CC2)n1 (stereo not drawn) | 0.613
Nc1cnc(-c2cccc3c2CCNC3)cn1 | -15.3
O=C(NC[C@H]1CCCO1)c1ccc(S(=O)(=O)N2C[C@@H]3C[C@H]2CN3)cc1 | -1.62
CCN(CCn1c(=O)oc2ccccc21)CC1CCOCC1 | -2.32
O=C(CCn1cnnn1)N1CCCC(CO)(CCc2ccccc2)C1 (stereo not drawn) | 18
O=C1NCC2(CCCN(C(=O)Cn3nc4ccccc4n3)CC2)O1 (stereo not drawn) | 29.9
CCc1cnc(N)nc1N1CCN(C(C)=O)CC1 | -15.8
CN(Cc1ccccc1)c1ncccc1CNC1CCSCC1 | -2.31
COCCC1(C(=O)O)CCCN(CCc2ccccc2)C1 (stereo not drawn) | -7.32
CCN1CCC(CC(=O)N(C)CC(=O)c2ccc(O)cc2)CC1 | -8.66
COCCN(CC1CCCN(C2Cc3ccccc3C2)C1)C(=O)CO (stereo not drawn) | -10
CC(CN(C)Cc1cccc(-n2cccn2)c1)C(F)(F)F (stereo not drawn) | -1.16
Cc1ccc(-c2ccnc(N(C)CC3CCCO3)n2)c(C)n1 (stereo not drawn) | -6.23
CC(=O)Nc1ncc(S(=O)(=O)N2CCN(C3CCCCC3)CC2)s1 | -5.13

Compound | cytotoxicity at 70.5 h [%]
CC(C)O[C@H]1CN(Cc2cnc3c(-c4ccccc4)cnn3c2)C[C@@H]1O | -5.99
CC1CCN(CCCNS(=O)(=O)Cc2ccccc2F)CC1 | 1.01
CCN(CC)c1ccc(-c2ccc(C)c(S(N)(=O)=O)c2)nn1 | -8.22
CCn1nc(C)c(CN(CCOC)C(=O)c2ccccc2N(C)C)c1C | -2.9
CCc1cccc(OCCCN(C)C(=O)CN2CCNC2=O)c1 | 0.78
O=S(=O)(Cc1ccccc1Cl)NCCCN1CCCC1 | -5.39
CCc1[nH]c2c(CNc3cnccn3)cc(F)cc2c1C | -2.66
CCCc1cnc(C)nc1N1CCC(F)(F)CC1 | -9.65
Cc1sc2nc(CCN)nc(N3CC(N4CCCCC4)C3)c2c1C | 26
Cc1nc(NCc2ccc(C)o2)cc(C2CCNCC2)n1 | -23.6
Nc1ccnc(C(=O)N2CCCC3(CCC(=O)N(C4CCCC4)C3)C2)c1 (stereo not drawn) | -7.4
Cc1ccccc1N1CCN(c2cc(N(C)C)ncn2)C(C)C1 (stereo not drawn) | -9.42
CCC(=O)Nc1cccc(OCC(=O)N(C)CCCC2CCCO2)c1 (stereo not drawn) | -3.54
Cc1ccc(C)c(OC(C)C(=O)NCc2cccnc2)c1 (stereo not drawn) | -5.32
CCC(C(=O)NCc1ccncc1)N(c1ccccc1)S(C)(=O)=O (stereo not drawn) | -3.1
CCCNC(=O)c1cc(OC)c(OC)cc1N(C)S(C)(=O)=O | -8.53
COc1ccc(OCC(C)NS(C)(=O)=O)cc1 (stereo not drawn) | -3.53
O=C(N[C@@H]1CCN(Cc2cccc3nonc23)C[C@H]1O)c1cccnc1 | -13.7
COC(=O)C1CCN(C(=O)c2cccc(NS(C)(=O)=O)c2C)CC1 | -7.56
CN(C)Cc1cn(CC2CCCN(c3nccc4occc34)C2)nn1 (stereo not drawn) | -14.2
O=c1[nH]c(COc2ccccc2Cl)nc2c1CCNC2 | -4.85
c1cnc(N2CCN(CCn3ccnc3-c3c[nH]cn3)CC2)nc1 | -6.35
Cc1ccc(-c2noc(CCC3CCN(C)CC3)n2)nn1 | -5.24

Compound | cytotoxicity at 70.5 h [%]
CCC[C@H]1CN(c2nccc(NCC)n2)C[C@@H]1NS(=O)(=O)N(C)C | -7.09
COc1nccnc1N1CCCC2(C1)C(=O)N(C)c1ccccc12 (stereo not drawn) | -12.3
COCC(=O)N1Cc2c(-c3cccc(C)c3)nc(N)nc2C1C (stereo not drawn) | -9.82
O=c1c2ccc(C(F)(F)F)cc2ncn1CCCN1CCCCC1CO (stereo not drawn) | 14.6
Cc1ncc(CNC2CC(=O)N(CCc3cccc(Cl)c3)C2)n1C (stereo not drawn) | -9.98
CNC(=O)c1cccnc1N1CCN(Cc2ccccc2)C(CCO)C1 (stereo not drawn) | -14.9
Cc1nn2c(N3CCCC(C#N)C3)cc(-c3ccccc3)nc2c1C (stereo not drawn) | 1.82
CNC(=O)c1sccc1S(=O)(=O)NC | -6.63
Cc1nc(O)cc(CCNC(=O)CC[C@@H]2CCCN3CCCC[C@H]23)n1 | -9.84
CC1CCN(C(=O)c2cccc(CN3CCOCC3)c2)CC1 | -5.87
CN1CCN(C(=O)c2cccc(CN3CCOCC3)c2)CC1 | -2.6
Nc1cc(N2CCC(c3cc(Cc4ccccc4)n[nH]3)CC2)ccn1 | 2.05
COc1ccc(SC(C)C(=O)N2CCC(C(N)=O)CC2)cc1 (stereo not drawn) | -14.1
CN(CCCO)C(=O)c1ccc2c(c1)nc(N1CC[C@H](O)C1)n2C | -7.06
Cc1nnc(-c2cccc(N3CCC(NC4CCSC4)CC3)c2)s1 (stereo not drawn) | 4.71
CN1C[C@@H](n2cnc(-c3ccccc3)c2-c2c[nH]cn2)C[C@H]1C(=O)O | -7.26
c1coc(CN2CCn3c(nc4ccccc43)C2)c1 | 29.8
Cc1cc(Cc2ccc(S(=O)(=O)N3CCOCC3)cc2)c(=O)[nH]n1 | 12.1
CS(=O)(=O)N(Cc1ccon1)c1ccc(F)cc1 | -2.76
CNC(=O)c1ccc(CN(C(C)C)C(C)C)o1 | -4.83
COc1cc(CNCc2ccco2)ccc1OCCO | -5.33
